Here are results for 17 molecules from patent US20260068882A1, “ARTHROPOD CONTROLLING COMPOSITION” (Firmenich SA, priority 2019, published 2026).

Read-outs that look alike come from different tables or passages of the source.

For one assay, the system named is Aedes aegypti. Kind of assay: In vitro Warm Body assay, mosquitoes landing on treated warm body. As to conditions: for repellent effect with increasing amount of stimuli (in words): 0.0016%, 0.04% and 1% in ethanol (FIG. 10). Type of assay: in vivo. On the procedure: The arthropod controlling effect according to the present invention is determined on mosquitoes using an adapted Warm Body assay as defined in Kröber T, Kessler S, Frei J, Bourquin M, Guerin P M. An in vitro assay for testing mosquito controlling compounds employing a warm body and carbon dioxide as a behavioral activator. J Am Mosq Control Assoc. 2010; 26:381-386.
The controlling effect according to the present invention is determined by testing the Warm Body assay against the yellow fever mosquito, Aedes aegypti Rockefeller strain. […] Observations of controlling efficacy were made on host-seeking females of uniform age, 5 to 10 days old selected as mentioned in the publication mentioned hereinabove. Tested hungry females had access to 10% sugar solution but were not blood-fed.
The published protocol has been adapted in not manually counting the landing mosquitoes but automatically using an automatic counting software, the switch from Anopheles gambiae to A. aegypti led to a decrease of mosquitoes' number placed in the tested cage due to the size difference (i.e. 30 mosquitoes instead of 50) and to an increase of lighting as A. aegypti is a diurnal mosquitoes (i.e. 150 lux instead of 4 lux).
The controlling effect according to the present invention is determined by testing the Warm Body assay against the yellow fever mosquito, A. aegypti Rockefeller strain. […] Observations of controlling efficacy were made on host-seeking females of uniform age, 5 to 10 days old selected as mentioned in the publication mentioned hereinabove. Tested hungry females had access to 10% sugar solution but were not blood-fed.
The controlling effect according to the present invention was assessed using an adapted Warm Body assay as defined in Kröber T, Kessler S, Frei J, Bourquin M, Guerin P M. An in vitro assay for testing mosquito controlling compounds employing a warm body and carbon dioxide as a behavioral activator. J Am Mosq Control Assoc. 2010; 26:381-386.
The published protocol has been adapted in not manually counting the landing mosquitoes but automatically using an automatic counting software, the switch from Anopheles gambiae to Aedes aegypti led to a decrease of mosquitoes' number placed in the tested cage due to the size difference (i.e. 30 mosquitoes instead of 50) and to an increase of lighting as Aedes aegypti is a diurnal mosquitoes (i.e. 150 lux instead of 4 lux).
In this in-vitro assay the number of A. aegypti landing on a warm body treated with the tested stimuli was measured in order to assess the repellency effect. Three replicates were carried on the three different doses: 0.0016%, 0.04% and 1% in ethanol, using 25 A. aegypti 10-12 days old females per cage.
In this in-vitro assay, the number of Aedes aegypti landing on a warm body treated with the tested stimuli was measured in order to assess the repellency effect. Three replicates were carried on the three different doses: 0.0016%, 0.04% and 1% in ethanol.
In this in-vitro assay, the number of Aedes aegypti landing on a warm body treated with the tested stimuli was measured in order to assess the repellency effect. One replicate was carried at different doses ranging from 0.0016% up to 1% in ethanol.

The next assay has as its system Ixodes ricinus. Nature of the assay: In vitro Warm Plate Assay for ticks. The format is in vivo. As to conditions: for pest or weed control at 0.2 %: 0.2% (Table 10). On the procedure:
Repellent efficacy of the different compounds was assessed against the sheep tick, Ixodes ricinus. I. ricinus is one of the recommended model organisms mentioned by the Guidance on the European Biological Products Regulation [Vol II, Efficacy-Assessment & Evaluation (Parts B+C), v. 3.0, April 2018]. Observations of repellent efficacy were made on last stage nymphs.
The repellent efficacy was assessed using the protocol of the in-vitro Warm Plate Assay as defined in Kröber T, Bourquin M, Guerin P M. A standardized in vivo and in vitro test method for evaluating tick repellents. Pesticide Biochemistry and Physiology. 2013; 107 (2): 160-168.].
The mean±SD number of ticks Ixodes ricinus walking down (affected), falling (affected) or walking-up (non affected) from the warm plate treated with ethanol, N,N-diethyl-3-methylbenzamide, (2,5-dimethyl-2,3-dihydro-1H-inden-2yl)methanol (Ingredient 2) or (2,4,6-trimethyl-2,3-dihydro-1H-inden-2-yl)methanol (Ingredient 1) diluted in ethanol at 0.4 mg/ml and 10 mg/mL was assessed on n groups of 12 ticks (n=2-5).
In this in-vitro assay, the percentage of ticks Ixodes ricinus affected by the stimulus loaded on the warm plate was measured in order to assess the repellency effect. Twelve ticks were assessed per concentrations that goes from 0.0016% up to 1% in ethanol.
Using the same in-vitro setup, the effect on ticks behavior (n≥12) of different stimuli diluted in ethanol at 20% (w/w) was assessed overtime.

Where [1] appears, read: Aedes aegypti, read-out: decrease of landings.
Setting [2] is: Ixodes ricinus, 0.04% (Table 10), read-out: percentage of ticks affected on the Warm Plate.
Where [3] appears, read: Ixodes ricinus, read-out: percentage of ticks affected on the Warm Plate.
Where [4] appears, read: Ixodes ricinus, 1% (Table 10), read-out: percentage of ticks affected on the Warm Plate.

Regarding `CC(C)c1ccc2c(c1)CC(C)(CO)C2` (racemic) [5-isopropyl-2-methyl-2-indanmethanol], the pest or weed control at 0.0016 % in the assay on Aedes aegypti (setting [1]) was 4 to 29%; with Ixodes ricinus (Ixodes ricinus, 0.0016% (Table 10), read-out: percentage of ticks affected on the Warm Plate), 21%. In addition, the pest or weed control at 0.00032 % with Ixodes ricinus (Ixodes ricinus, 0.00032% (Table 10), read-out: percentage of ticks affected on the Warm Plate) was found to be 0%. For the same molecule, in the assay with Ixodes ricinus (Ixodes ricinus, 0.008% (Table 10), read-out: percentage of ticks affected on the Warm Plate), the pest or weed control at 0.008 % is 0%. The pest or weed control at 0.04 % in the assay on Ixodes ricinus (setting [2]) is 71%. Also, the pest or weed control at 0.2 % in the assay on Ixodes ricinus (setting [3]) turned out to be 87%. The pest or weed control at 1 % with Ixodes ricinus (setting [4]) turned out to be 92%. Further, in the assay on Ixodes ricinus (Tables 10 and 12), the “concentration at which the level of 85% of ticks affected is reached” value is given as 0.2%.
As for `Cc1ccc2c(c1)[C@H]1OCOC[C@H]1C2` (racemic) [(4aRS,9bSR)-8-methyl-4,4a,5,9b-tetrahydroindeno[1,2-d][1,3]dioxin], the “number of mosquitoes landed on the Warm Body” value (from here on “number of mosquitoes landed”) in the assay on Aedes aegypti (0.0016% in ethanol (Table 6)) came out at 103; in the assay with Aedes aegypti (0.04% in ethanol (Table 6)), 8; with Aedes aegypti (1% in ethanol (Table 6)), 8. In addition, in the assay on Ixodes ricinus (setting [2]), the pest or weed control at 0.04 % worked out at 8%. The pest or weed control at 0.2 % with Ixodes ricinus (setting [3]) was found to be 33%. In addition, the pest or weed control at 1 % with Ixodes ricinus (setting [4]) is 85%.
As to `CC(=O)C1(C)Cc2ccc(C)c(C)c2C1` (racemic) [(+−)-1-(2,4,5-trimethyl-2,3-dihydro-1H-inden-2-yl)ethanone], the “number of mosquitoes landed” value is reported as 31 with Aedes aegypti (0.0016% in ethanol (Table 6)), 5 with Aedes aegypti (0.04% in ethanol (Table 6)) and 18 with Aedes aegypti (1% in ethanol (Table 6)). Further, the pest or weed control at 0.04 % in the assay with Ixodes ricinus (setting [2]) is 0%. Moreover, the pest or weed control at 0.2 % with Ixodes ricinus (setting [3]) came out at 38%. The pest or weed control at 1 % in the assay with Ixodes ricinus (setting [4]) is 92%.
In the case of `CC(=O)C1(C)Cc2ccc(C)cc2C1` (racemic) [(+−)-1-(2,5-dimethyl-2,3-dihydro-1H-inden-2-yl)ethanone], the “number of mosquitoes landed” value in the assay with Aedes aegypti (0.0016% in ethanol (Table 6)) is recorded as 119; in the assay on Aedes aegypti (0.04% in ethanol (Table 6)), 15; in the assay with Aedes aegypti (1% in ethanol (Table 6)) it was 6. Also, the pest or weed control at 0.04 % with Ixodes ricinus (setting [2]) was determined as 0%. Further, the pest or weed control at 0.2 % in the assay with Ixodes ricinus (setting [3]) came to 42%. Moreover, the pest or weed control at 1 % in the assay on Ixodes ricinus (setting [4]) is 100%.
Regarding `CC1(CO)Cc2ccc(C(C)(C)C)cc2C1` (racemic) [(+−)-5-tert-butyl-2-methyl-2-indanmethanol], in the assay on Aedes aegypti, the “repellent effect with increasing amount of stimuli (in words)” value (“repellent effect with increasing amount” below) is on record as “low decrease of landing”. In the assay on Ixodes ricinus (Ixodes ricinus, 0.0016% (Table 11), read-out: percentage of ticks affected on the Warm Plate), the pest or weed control at 0.0016 % turned out to be 0%. In addition, in the assay with Ixodes ricinus (Ixodes ricinus, 0.04% (Table 11), read-out: percentage of ticks affected on the Warm Plate), the pest or weed control at 0.04 % stood at 8%. Also, the pest or weed control at 1 % in the assay on Ixodes ricinus (Ixodes ricinus, 1% (Table 11), read-out: percentage of ticks affected on the Warm Plate) was determined as 92%.
For `Cc1ccc2c(c1)CC(C)(C(=O)O)C2` (stereo not shown) [2,5-dimethyl-2,3-dihydro-1H-indene-2-carboxylic acid], in the assay on Aedes aegypti (setting [1]), the pest or weed control at 0.0016 % lay within 4 to 29%.
`Cc1ccc2c(c1)C1OC(=O)OCC1(C)C2` (stereo not shown) [4a,8-dimethyl-indano[1,2-d]-1,3-dioxan-2-one] gave a decrease of landings in the assay on Aedes aegypti (0.04% in ethanol (FIG. 8)) of roughly 70%.
With `CCc1ccc2c(c1)CC(C)(CO)C2` (stereo not shown) [5-ethyl-2-methyl-2-indanmethanol], in the assay with Aedes aegypti (setting [1]), the pest or weed control at 0.04 % is roughly 70%.
Turning to `Cc1ccc2c(c1)[C@@H]1O[C@H](C)OC[C@]1(C)C2` [(2R,4aS,9bS)-2,4a,8-trimethyl-4,4a,5,9b-tetrahydroindeno[1,2-d][1,3]dioxin], the “number of mosquitoes landed” value is listed as 40 in the assay with Aedes aegypti (0.0016% in ethanol (Table 6)), 8 in the assay with Aedes aegypti (0.04% in ethanol (Table 6)) and 10 in the assay on Aedes aegypti (1% in ethanol (Table 6)).
As to `CC1OC(C)C2Cc3ccccc3C2O1` (stereo not drawn) [(+)-2,4-dimethyl-4,4a,5,9b-tetrahydroindeno[1,2-d][1,3]dioxine + (−)-2,4-dimethyl-4,4a,5,9b-tetrahydroindeno[1,2-d][1,3]dioxine], the “number of mosquitoes landed” value in the assay on Aedes aegypti (0.0016% in ethanol (Table 6)) came to 58; with Aedes aegypti (0.04% in ethanol (Table 6)), 37; in the assay on Aedes aegypti (1% in ethanol (Table 6)) it was 3.
Regarding “(1RS,2RS)-2-((2-methoxypropan-2-yloxy)methyl)-2,6-dimethyl-2,3-dihydro-1H-inden-1-ol+(1RS,2SR)-2-((2-methoxypropan-2-yloxy)methyl)-2,6-dimethyl-2,3-dihydro-1H-inden-1-ol”, the “repellent effect with increasing amount” value in the assay on Aedes aegypti is “significant lower repellent effect than DEET or IR3535”.
Regarding “(1RS,2RS)-2-(hydroxymethyl)-2,6-dimethyl-2,3-dihydro-1H-inden-1-ol+(1RS,2SR)-2-(hydroxymethyl)-2,6-dimethyl-2,3-dihydro-1H-inden-1-ol”, in the assay with Aedes aegypti, the “repellent effect with increasing amount” value is “significant lower repellent effect than DEET or IR3535”.
For “(2RS,4aRS,9bRS)-2,4a,7-trimethyl-4,4a,5,9b-tetrahydroindeno[1,2-d][1,3]dioxine + (2RS,4aSR,9bSR)-2,4a,7-trimethyl-4,4a,5,9b-tetrahydroindeno[1,2-d][1,3]dioxine”, the “number of mosquitoes landed” value with Aedes aegypti (0.0016% in ethanol (Table 6)) is recorded as 30; with Aedes aegypti (0.04% in ethanol (Table 6)) it was 0; with Aedes aegypti (0.04% in ethanol (Table 6), listed as blend of (2RS,4aRS,9bRS)-2,4a,7-trimethyl-4,4a,5,9b-tetrahydroindeno[1,2-d][1,3]) it was “no mosquito landed at all”; in the assay with Aedes aegypti (1% in ethanol (Table 6)) it was 0; with Aedes aegypti (1% in ethanol (Table 6), listed as blend of (2RS,4aRS,9bRS)-2,4a,7-trimethyl-4,4a,5,9b-tetrahydroindeno[1,2-d][1,3]) it was “zero”.
On to “(2RS,4aRS,9bSR)-2-ethyl-8-methyl-4,4a,5,9b-tetrahydroindeno[1,2-d][1,3]dioxin + (2RS,4aSR,9bRS)-2-ethyl-8-methyl-4,4a,5,9b-tetrahydroindeno[1,2-d][1,3]dioxin”, for which the “number of mosquitoes landed” value in the assay with Aedes aegypti (0.0016% in ethanol (Table 6)) was determined as 45; with Aedes aegypti (0.04% in ethanol (Table 6)), 24; in the assay on Aedes aegypti (1% in ethanol (Table 6)) it was 10.
Turning to “(2RS,4aRS,9bSR)-2-methyl-4,4a,5,9b-tetrahydroindeno[1,2-d][1,3]dioxin + (2RS,4aSR,9bRS)-2-methyl-4,4a,5,9b-tetrahydroindeno[1,2-d][1,3]dioxin”, the “number of mosquitoes landed” value was 28 with Aedes aegypti (0.0016% in ethanol (Table 6)), 2 with Aedes aegypti (0.04% in ethanol (Table 6)) and 2 in the assay on Aedes aegypti (1% in ethanol (Table 6)).
On to “(2RS,4aSR,9bRS)-2,8-dimethyl-4,4a,5,9b-tetrahydroindeno[1,2-d][1,3]dioxine + 2RS,4aRS,9bSR)-2,8-dimethyl-4,4a,5,9b-tetrahydroindeno[1,2-d][1,3]dioxine”, for which the “number of mosquitoes landed” value was 38 in the assay with Aedes aegypti (0.0016% in ethanol (Table 6)), 14 in the assay with Aedes aegypti (0.04% in ethanol (Table 6)) and 4 in the assay with Aedes aegypti (1% in ethanol (Table 6)).
“(2RS,4aSR,9bRS)-2-ethyl-4,4a,5,9b-tetrahydroindeno[1,2-d][1,3]dioxine + (2RS,4aRS,9bSR)-2-ethyl-4,4a,5,9b-tetrahydroindeno[1,2-d][1,3]dioxine”: the “number of mosquitoes landed” value was 43 with Aedes aegypti (0.0016% in ethanol (Table 6)), 6 with Aedes aegypti (0.04% in ethanol (Table 6)) and 5 in the assay on Aedes aegypti (1% in ethanol (Table 6)).
